From patent US20220324835A1 (Nurix Therapeutics, Inc., priority 2018, published 2022)
Read-outs that look alike come from different tables or passages of the source.

Key:
Type in all cases: cell-based
[1] = test system: primary human NK cells; test: NK cell activation assessed by cytokine secretion (coculture with K562 NucRed target cells); settings: for fold induction at 0.625 µM: 0.625 μM compound; for fold induction at 2.5 µM: 2.5 μM compound
Description: Peripheral blood mononuclear cells (PBMC) were obtained either: 1) by using Ficoll-Paque™ (GE Healthcare) for separation of peripheral blood hematopoietic cells from buffy coats of healthy human donors; or 2) directly from LeukoPak donations. […] The cells were cultured overnight with IL-2 (60 ng/mL) at 37° C. 5% CO2. Cbl-b inhibitors were added 1 hour prior to stimulation and incubated at 37° C. 5% CO2 at a specific concentration (e.g., 10 μM, 1 μM, or 0.1 μM) with a final DMSO concentration of <0.1%. NK cells were co-cultured with target cells that were engineered to have a red nucleus (K562 NucRed) measurable by flow cytometry. […] The cells were mixed at the indicated ratios (e.g., 5:1, 1:1, or 1:5) of NK (effector cells) to K562 NucRed (target cells) for 6 hours. Cell free supernatants were collected and analyzed for cytokine secretion (e.g. TNFα, IFNγ, or MIP1β) by ELISA or Luminex multiplex kits following the manufacturer's protocol. IFNγ secretion was assessed using an R&D Systems ELISA kit (Catalog #DY285), TNFα secretion was assessed using an R&D Systems ELISA kit (Catalog #DY210), and MIP1β secretion was assessed using an R&D Systems ELISA kit (Catalog #DY271).
Readouts were reported as fold change over baseline. Baseline for this study was the measurement obtained from primary human NK effector cells cocultured with K562 NucRed target cells in the absence of a Cbl-b inhibitor. For NK cells cocultured with K562 NucRed cells, changes greater than 2.0-fold over baseline for cytokine secretion were considered a positive response (Table 10a and 10b).

[2] = test system: primary human B cells; test: B cell activation assay (CD69 on anti-IgM stimulated B cells); settings: AUC of dose response curve (10 μM to 1 nM) of CD69 MFI normalized to DMSO control
Description: Peripheral blood mononuclear cells (PBMC) were obtained either: 1) by using Ficoll-Paque™ (GE Healthcare) for separation of peripheral blood hematopoietic cells from buffy coats of healthy human donors; or 2) directly from LeukoPak donations. Human primary B cells were isolated from the PBMCs utilizing negative selection with commercial kits following the manufacturer's protocol (StemCells Catalog #17954) to yield >95% CD20+ cells assessed by flow cytometry. Primary human B cells were plated at 0.7-1×10^5 per well in a 96-well plate with Cbl-b inhibitors over a dose ranging from 10 μM to 1 nM and incubated at 37° C. 5% CO2, with a final DMSO concentration of <0.5%. Cells were stimulated with anti-IgM for 20 hours at 37° C. 5% CO2. Surface activation markers on mature CD20^+ IgD^+ B cells were monitored by FACS using an anti-CD69 antibody (BD Biosciences).
Cbl-b inhibitors were tested to determine their ability to induce or enhance surface expression of cell surface markers on B cells (e.g., CD69), which is indicative of B cell activation.
Readouts were reported as area under curve (AUC) of the dose response curve of CD69 mean fluorescence intensity (MFI) normalized to the DMSO control. Baseline for this study was the measurement obtained from primary human B cells treated with DMSO in the presence of 2.5 μg/mL of anti-IgM-F(ab′)2. […] Compounds were ranked into bins according to their readouts as follows: A indicates ≤0.5, B indicates 0.5-1.00, C indicates 1.01-1.50, and D indicates ≥1.51.

[3] = test system: T-cell; test: CD25 cell surface staining on T-cells stimulated with anti-CD3 antibody alone (Biological Example 2); settings: primary human total T-cells, baseline = anti-CD3/anti-CD28 stimulated cells without inhibitor, read-out: CD25 staining, Anti-CD3 stimulation, fold change over baseline; for fold induction at 1 µM: 1 μM compound; for fold induction at 8 µM: 8 μM compound
[4] = K562, NK cells cocultured with K562 NucRed, 1:1 E/T, read-out: IFNγ secretion, fold change over baseline
[5] = K562, NK cells cocultured with K562 NucRed, 1:1 E/T, read-out: TNFα secretion, fold change over baseline
[6] = K562, NK cells cocultured with K562 NucRed, 1:1 E/T, 10 μM compound, read-out: IFNγ secretion, fold change over baseline
[7] = K562, NK cells cocultured with K562 NucRed, 1:1 E/T, 10 μM compound, read-out: TNFα secretion, fold change over baseline
[8] = K562, 1:1 E/T, read-out: IFNγ secretion
[9] = K562, 1:1 E/T, read-out: MIP1β secretion
[10] = K562, 1:1 E/T, read-out: TNFα secretion
[11] = K562, 1:1 E/T, 10 μM, read-out: IFNγ secretion
[12] = K562, 1:1 E/T, 10 μM, read-out: MIP1β secretion
[13] = K562, 1:1 E/T, 10 μM, read-out: TNFα secretion
[14] = K562, 5:1 E/T, read-out: IFNγ secretion
[15] = K562, 5:1 E/T, read-out: MIP1β secretion
[16] = K562, 5:1 E/T, read-out: TNFα secretion
[17] = K562, 5:1 E/T, 10 μM, read-out: IFNγ secretion
[18] = K562, 5:1 E/T, 10 μM, read-out: MIP1β secretion
[19] = K562, 5:1 E/T, 10 μM, read-out: TNFα secretion

SMILES | fold induction at 0.625 µM [1, 4] | fold induction at 0.625 µM [1, 5] | fold induction at 2.5 µM [1, 4] | fold induction at 2.5 µM [1, 5] | fold induction at 10 µM [1, 6] | fold induction at 10 µM [1, 7] | CD69 MFI AUC [2] | fold induction at 1 µM [3] | fold induction at 8 µM [3] | further results
C[C@H](Cc1nncn1C)c1cccc(NC(=O)c2cccc(C(F)(F)F)n2)c1 [Compound 183a, (R)-N-(3-(1-(4-methyl-4H-1,2,4-triazol-3-yl)propan-2-yl)phenyl)-6-(trifluoromethyl)picolinamide] | 2.01 to 5 | 1.01 to 2 | 2.01 to 5 | 2.01 to 5 | 2.01 to 5 | 2.01 to 5 | C (C indicates 1.01-1.50) | – | – | –
Cc1cc(C(=O)Nc2cccc([C@H](C)Cc3nncn3C)c2)nc(C2CC2)n1 [Compound 195, (R)-2-cyclopropyl-6-methyl-N-(3-(1-(4-methyl-4H-1,2,4-triazol-3-yl)propan-2-yl)phenyl)pyrimidine-4-carboxamide] | 2.01 to 5 | 1.01 to 2 | 2.01 to 5 | 2.01 to 5 | > 5 | 2.01 to 5 | D (D indicates ≥1.51) | – | – | fold induction at 1 µM [1, 8]: 2.01 to 5; fold induction at 1 µM [1, 9]: 1.01 to 2; fold induction at 1 µM [1, 10]: 2.01 to 5; fold induction at 10 µM [1, 11]: 2.01 to 5; fold induction at 10 µM [1, 12]: 2.01 to 5; fold induction at 10 µM [1, 13]: 2.01 to 5; fold induction at 1 µM [1, 14]: 2.01 to 5; fold induction at 1 µM [1, 15]: 2.01 to 5; fold induction at 1 µM [1, 16]: 2.01 to 5; fold induction at 10 µM [1, 17]: > 5; fold induction at 10 µM [1, 18]: 2.01 to 5; fold induction at 10 µM [1, 19]: > 5
C[C@H](Cc1nncn1C)c1cccc(N2Cc3c(cccc3C(F)(F)F)C2=O)c1 [Compound 255a, (R)-2-(3-(1-(4-methyl-4H-1,2,4-triazol-3-yl)propan-2-yl)phenyl)-4-(trifluoromethyl)isoindolin-1-one] | 1.01 to 2 | 1.01 to 2 | 1.01 to 2 | 1.01 to 2 | 2.01 to 5 | 2.01 to 5 | C (C indicates 1.01-1.50) | – | – | fold induction at 1 µM [1, 8]: 1.01 to 2; fold induction at 1 µM [1, 9]: < 1; fold induction at 1 µM [1, 10]: < 1; fold induction at 10 µM [1, 11]: 2.01 to 5; fold induction at 10 µM [1, 12]: 1.01 to 2; fold induction at 10 µM [1, 13]: < 1; fold induction at 1 µM [1, 14]: 1.01 to 2; fold induction at 1 µM [1, 15]: < 1; fold induction at 1 µM [1, 16]: < 1; fold induction at 10 µM [1, 17]: > 5; fold induction at 10 µM [1, 18]: 1.01 to 2; fold induction at 10 µM [1, 19]: < 1
C[C@H](Cc1nncn1C)c1cccc(NC(=O)c2n[nH]c3c2CCC3)c1 [Compound 313, (R)-N-(3-(1-(4-Methyl-4H-1,2,4-triazol-3-yl)propan-2-yl)phenyl)-1,4,5,6-tetrahydrocyclopenta[c]pyrazole-3-carboxamide] | < 1 | 1.01 to 2 | 1.01 to 2 | 1.01 to 2 | 2.01 to 5 | 1.01 to 2 | B (B indicates 0.5-1.00) | – | – | –
Cc1cc(C(=O)Nc2cccc([C@@H](C)Cc3nncn3C)c2)nc(C2CC2)n1 [Compound 325, (S)-2-Cyclopropyl-6-methyl-N-(3-(1-(4-methyl-4H-1,2,4-triazol-3-yl)propan-2-yl)phenyl)pyrimidine-4-carboxamide] | 1.01 to 2 | < 1 | 1.01 to 2 | < 1 | 2.01 to 5 | 1.01 to 2 | C (C indicates 1.01-1.50) | – | – | –
Cn1cnnc1CC1(c2cccc(NC(=O)c3nc4c(C(F)(F)F)cccc4[nH]3)c2)COC1 [Compound 335, N-(3-{3-[(4-methyl-1,2,4-triazol-3-yl)methyl]oxetan-3-yl}phenyl)-4-(trifluoromethyl)-1H-1,3-benzodiazole-2-carboxamide] | 1.01 to 2 | 1.01 to 2 | 2.01 to 5 | 1.01 to 2 | 2.01 to 5 | 2.01 to 5 | B (B indicates 0.5-1.00) | – | – | –
Cc1cc(C(=O)Nc2cccc(C3(Cc4nncn4C)COC3)c2)nc(C2CC2)n1 [Compound 336, 2-cyclopropyl-6-methyl-N-(3-(3-((4-methyl-4H-1,2,4-triazol-3-yl)methyl)oxetan-3-yl)phenyl)pyrimidine-4-carboxamide] | 2.01 to 5 | 1.01 to 2 | > 5 | 2.01 to 5 | > 5 | 2.01 to 5 | D (D indicates ≥1.51) | – | – | –
Cc1n[nH]c(C)c1-c1cc2c(c(C(F)(F)F)c1)CN(c1cccc(C3(Cc4nncn4C)COC3)c1)C2=O [Compound 385, 6-(3,5-dimethyl-1H-pyrazol-4-yl)-2-(3-{3-[(4-methyl-4H-1,2,4-triazol-3-yl)methyl]oxetan-3-yl}phenyl)-4-(trifluoromethyl)-2,3-dihydro-1H-isoindol-1-one] | 1.01 to 2 | < 1 | 2.01 to 5 | 1.01 to 2 | 2.01 to 5 | 1.01 to 2 | C (C indicates 1.01-1.50) | > 1 | > 1 | –
C[C@H](Cc1nncn1C)c1cccc(N2Cc3c(cc(CN4CC(O)C4)cc3C(F)(F)F)C2=O)c1 [Compound 393, (R)-6-((3-hydroxyazetidin-1-yl)methyl)-2-(3-(1-(4-methyl-4H-1,2,4-triazol-3-yl)propan-2-yl)phenyl)-4-(trifluoromethyl)isoindolin-1-one] | 1.01 to 2 | 1.01 to 2 | 2.01 to 5 | 2.01 to 5 | 2.01 to 5 | 2.01 to 5 | B (B indicates 0.5-1.00) | > 1 | > 1 | –
C[C@H](Cc1nncn1C)c1cccc(N2Cc3c(cc(CN4CC(C)(O)C4)cc3C(F)(F)F)C2=O)c1 [Compound 397] | 2.01 to 5 | 1.01 to 2 | 2.01 to 5 | 2.01 to 5 | > 5 | 2.01 to 5 | B (B indicates 0.5-1.00) | > 1 | > 1 | –
